Measured values: PubChem BioAssay (NCI)
Where “and” joins values, the source holds several entries; their conditions need not be identical. Identical values can stand only once.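 Five compound concentrations were applied to cells in 96-well plates for 48 hours; endpoints were derived by simple linear interpolation of the resulting dose-response curve. GI50 is the concentration that inhibits growth by half. TGI is the concentration that stops growth completely.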

Assays:
Experiment in all cases: NCI anticancer screen, dose series, 48 h
[1] = test system: MDA-MB-468 breast
[2] = test system: 786-0 renal
[3] = test system: A498 renal
[4] = test system: A549 NSCLC
[5] = test system: BT-549 breast
[6] = test system: CAKI-1 renal
[7] = test system: CCRF-CEM leukemia
[8] = test system: DU-145 prostate
[9] = test system: EKVX NSCLC
[10] = test system: HCC-2998 colon
[11] = test system: HL-60(TB) leukemia
[12] = test system: HOP-92 NSCLC
[13] = test system: HS 578T breast
[14] = test system: HT29 colon
[15] = test system: IGROV1 ovarian
[16] = test system: K-562 leukemia
[17] = test system: KM12 colon
[18] = test system: M14 melanoma
[19] = test system: MALME-3M melanoma
[20] = test system: MDA-MB-231 breast
[21] = test system: MDA-MB-435
[22] = test system: NCI-H226 lung
[23] = test system: NCI-H522 lung
[24] = test system: NCI/ADR-RES ovarian
[25] = test system: OVCAR-4 ovarian
[26] = test system: OVCAR-5 ovarian
[27] = test system: OVCAR-8 ovarian
[28] = test system: PC-3 prostate
[29] = test system: RPMI-8226 leukemia
[30] = test system: RXF 393 renal
[31] = test system: SF-268 CNS
[32] = test system: SF-539 CNS
[33] = test system: SK-MEL-2 melanoma
[34] = test system: SK-MEL-28 melanoma
[35] = test system: SK-MEL-5 melanoma
[36] = test system: SK-OV-3 ovarian
[37] = test system: SN12C renal
[38] = test system: SNB-19 CNS
[39] = test system: SNB-75 CNS
[40] = test system: SR leukemia
[41] = test system: T-47D breast
[42] = test system: TK-10 renal
[43] = test system: UACC-257 melanoma
[44] = test system: UACC-62 melanoma
[45] = test system: UO-31 renal

## O=C(Nc1ccccc1)Nc1ccccc1CNc1nc(Nc2ccc(OCCN3CCCC3)cc2)ncc1Cl
[1]
  GI50: 1.96 µM
  TGI: 9.4 µM

## CC(=O)Nc1ccc(-n2cnc3cc(-c4ccc(OCCN5CCCCC5)cc4)ccc32)cc1
[1]
  GI50: 5.64 µM
  TGI: 14.1 µM

## CCCCCCCCCCCCNC(=O)[C@H]1CSC(c2ccc(OC)c(F)c2)N1 (stereo partly drawn)
[1]
  GI50: 1.28 µM
  TGI: 2.82 µM

## CCCCCCCCCCCCCCCCCC1=NC(C)(C)CN1CCO
[1]
  GI50: 1.59 µM
  TGI: 3.04 µM

## COc1cc(/C=C\c2cccnc2Nc2ccccc2)cc(OC)c1OC
[1]
  GI50: 6.77 µM
  TGI: 48.7 µM

## Cc1cc(N)c2ccccc2[n+]1CCCCCCCCCC[n+]1c(C)cc(N)c2ccccc21
[1]
  GI50: 0.0647 µM
  TGI: 0.245 µM

## C#Cc1ccc(-n2c(/C=C/c3cc(OC)c(OC)c(OC)c3)nc3ncccc3c2=O)cc1
[1]
  GI50: 2.83 µM
  TGI: > 100 µM

## COc1ccc(N=C2NN=C(c3c[nH]c4ccccc34)CS2)cc1OC
[1]
  GI50: 14.6 µM
  TGI: > 60.5 µM

## COc1cc(C(=O)N/N=C/c2cccc([N+](=O)[O-])c2)cc(OC)c1OC
[1]
  GI50: 2.77 µM
  TGI: 14 µM

## O=c1[nH]c(-c2ccccn2)nc2sc3c(c12)CCCCCC3
[1]
  GI50: 1.66 µM
  TGI: > 100 µM

## Cn1cc(-c2nn3cc(-c4cccs4)nc3s2)c2cc(F)ccc21
[1]
  GI50: 1.44 µM
  TGI: 5.47 µM

## COC(=O)Nc1nc2ccc(Sc3ccc(NC(=O)Nc4cc(C(F)(F)F)ccc4F)cc3)cc2[nH]1
[1]
  GI50: 0.882 µM
  TGI: 4.75 µM

## Cc1cnc2[nH]c(-c3ccccc3)cc(=O)c2c1
[1]
  GI50: 24.6 µM
  TGI: > 100 µM

## CCN(CC)CCOc1ccc(C2=C(c3ccccc3)CCc3cc(OC)ccc32)cc1
[1]
  GI50: 0.138 µM
  TGI: 0.418 µM

## COc1cc(OC)cc(N2CCN(C(=O)Nc3nc4cc(F)ccc4nc3OC)CC2)c1
[1]
  GI50: 0.0283 µM
  TGI: 65.1 µM

## C[C@H](NC(=O)CCC(F)(F)F)C(=O)N[C@@H]1C(=O)N(CCO)c2ncccc2-c2ccccc21
[1]
  GI50: > 100 µM
  TGI: > 100 µM

## COc1cc(OC)c(/C=C/S(=O)(=O)Cc2ccc(OC)c(NCC(=O)O)c2)c(OC)c1
[1]
  GI50: 0.121 µM and 0.187 µM
  TGI: > 100 µM

## CC(C)(C)c1ccc(S(=O)(=O)N[C@H]2CC[C@H]3[C@@H]4CCc5cc(O)ccc5[C@H]4CC[C@]23C)cc1
[1]
  GI50: 2.74 µM
  TGI: 9.6 µM

## CCOc1cccnc1/C=N/NC(N)=S
[1]
  GI50: 2.54 µM
  TGI: 13.3 µM

## C=C(C)[C@@H]1CCC[C@]2(C(=O)O)CC[C@]3(C)[C@@H](CC[C@@H]4[C@@]5(C)C/C(=C/c6ccncc6)C(=O)C(C)(C)[C@@H]5CC[C@]43C)[C@@H]12
[1]
  GI50: 2.1 µM
  TGI: 5.49 µM

## COc1ncnc2c(-c3ccco3)cn(COCc3ccccc3)c12
[1]
  GI50: 2.4 µM
  TGI: > 50 µM

## CN(C)c1ccc(Sc2ccc3nc(N)nc(N)c3c2)cc1
[1]
  GI50: 0.909 µM
  TGI: 2.65 µM

## CC(C)C[C@H](NC(=O)[C@@H](O)[C@H](N)Cc1ccccc1)C(=O)O
[1]
  GI50: 53.4 µM
  TGI: > 100 µM

## Cn1cc(-c2cc(N)n3nc(-c4c[nH]c5ccccc45)cc3n2)c2cc(Br)ccc21
[2]
  GI50: 1.88 µM
  TGI: 4.1 µM
[3]
  GI50: 2.06 µM
  TGI: 7.26 µM
[4]
  GI50: 1.91 µM
  TGI: 5.18 µM
[5]
  GI50: 14.1 µM
  TGI: 44.6 µM
[6]
  GI50: 1.58 µM
  TGI: 3.16 µM
[7]
  GI50: 2.24 µM
  TGI: 6.75 µM
[8]
  GI50: 3.33 µM
  TGI: 12.3 µM
[9]
  GI50: 1.83 µM
  TGI: 4.37 µM
[10]
  GI50: 1.78 µM
  TGI: 3.39 µM
[11]
  GI50: 2.86 µM
  TGI: 9.81 µM
[12]
  GI50: 2.25 µM
  TGI: 5.54 µM
[13]
  GI50: 2.56 µM
  TGI: 9.25 µM
[14]
  GI50: 1.77 µM
  TGI: 3.62 µM
[15]
  GI50: 1.99 µM
  TGI: 4.52 µM
[16]
  GI50: 3.44 µM
  TGI: > 100 µM
[17]
  GI50: 1.94 µM
  TGI: 4.09 µM
[18]
  GI50: 1.79 µM
  TGI: 4.09 µM
[19]
  GI50: 1.87 µM
  TGI: 3.31 µM
[20]
  GI50: 1.91 µM
  TGI: 3.5 µM
[21]
  GI50: 2.07 µM
  TGI: 4.65 µM
[1]
  GI50: 1.56 µM
  TGI: 3.04 µM
[22]
  GI50: 4.76 µM
  TGI: 42.9 µM
[23]
  GI50: 1.65 µM
  TGI: 3.34 µM
[24]
  GI50: 2.22 µM
  TGI: 5.09 µM
[25]
  GI50: 3.06 µM
  TGI: 11.2 µM
[26]
  GI50: 1.91 µM
  TGI: 3.93 µM
[27]
  GI50: 2.84 µM
  TGI: 8.51 µM
[28]
  GI50: 2.09 µM
  TGI: 5.36 µM
[29]
  GI50: 2.98 µM
  TGI: 9.57 µM
[30]
  GI50: 1.85 µM
  TGI: 4.65 µM
[31]
  GI50: 2.13 µM
  TGI: 5.87 µM
[32]
  GI50: 1.75 µM
  TGI: 3.22 µM
[33]
  GI50: 1.88 µM
  TGI: 4.27 µM
[34]
  GI50: 1.85 µM
  TGI: 3.52 µM
[35]
  GI50: 1.92 µM
  TGI: 3.82 µM
[36]
  GI50: 6.31 µM
  TGI: > 100 µM
[37]
  GI50: 1.91 µM
  TGI: 3.87 µM
[38]
  GI50: 2.02 µM
  TGI: 4.39 µM
[39]
  GI50: 2.05 µM
  TGI: 9.74 µM
[40]
  GI50: 5.95 µM
  TGI: > 100 µM
[41]
  GI50: 1.97 µM
  TGI: 4.72 µM
[42]
  GI50: 2.08 µM
  TGI: 5.53 µM
[43]
  GI50: 1.95 µM
  TGI: 4.31 µM
[44]
  GI50: 1.65 µM
  TGI: 3.28 µM
[45]
  GI50: 1.71 µM
  TGI: 3.53 µM

## CCNC(=O)Oc1ccc(/C(=C(\C)c2ccc(Cl)cc2)c2ccc(OCCN3CCCCC3)cc2)cc1
[1]
  GI50: 2.66 µM
  TGI: 9.5 µM

## O=c1[nH]c2cc(O)ccc2n2cc3c(F)cccc3c12
[1]
  GI50: 1.36 µM
  TGI: > 100 µM

## N#Cc1ccc(N2Cc3cc(Cl)ccc3OC3=C2C(=O)N(Cc2ccccc2)C3=O)cc1
[1]
  GI50: 1.22 µM
  TGI: 3.26 µM

## Cn1c(COC(=O)NCCN2CCOCC2)nc2c(N3CCOCC3)nc(-c3ccccc3)nc21
[1]
  GI50: 1.14 µM
  TGI: 2.95 µM

## COc1ccc(S(=O)(=O)NCCNc2nccc(-c3c(-c4ccccc4)nc4sccn34)n2)cc1
[1]
  GI50: 3.03 µM
  TGI: > 100 µM

## C[C@]12CC[C@@H]3c4ccc(O)cc4CC[C@H]3[C@@H]1CC[C@@H]2NS(=O)(=O)c1ccc(-c2ccccc2)cc1
[1]
  GI50: 2.96 µM
  TGI: 38.8 µM

## O=[N+]([O-])c1cccc(-c2ncc(-c3ccc(Cl)cc3Cl)[nH]2)c1
[1]
  GI50: 1.63 µM
  TGI: 3.54 µM

## C#Cc1nc(C2=C(C)C(O)/C(=N/O)C2)cs1 (stereo not drawn)
[1]
  GI50: 17.6 µM
  TGI: > 100 µM

## COc1ccc(N(Cc2cc(OC)c(OC)c(OC)c2)C2OC(=O)c3ccccc32)cc1 (stereo not drawn)
[1]
  GI50: 0.328 µM
  TGI: > 100 µM

## CCCCCCN(CCCCCC)CC(O)c1cccc2ccc(Cl)cc12 (stereo not drawn)
[1]
  GI50: 3.19 µM
  TGI: 14.6 µM

## CCCCCCN1C(=O)CN=C1Nc1ccc2cc3ccc(NC4=NCC(=O)N4CCCCCC)cc3nc2c1
[1]
  GI50: 1.64 µM
  TGI: 3.4 µM

## Cc1ccc(OCCCCCCNCCO)c(C)c1
[1]
  GI50: 8.48 µM
  TGI: 23.6 µM

## COc1ccc(-n2nc(C)c3c2N(C)C2(C)C[C@@H]4C3(C)[C@@H]3CC4(C2)N(C)c2c(c(C)nn2-c2ccc(OC)cc2)[C@H]3C)cc1 (stereo partly drawn)
[1]
  GI50: 4.76 µM
  TGI: 64.8 µM

## CC(=O)N[C@@H]1CCC[C@H](C(=O)Nc2cc(-c3cnn4c3CC(C)(C)C4)c(Cl)cn2)C1
[1]
  GI50: < 0.01 µM
  TGI: 0.049 µM

## Cc1csc(Nc2nc(-c3cccc(Cl)c3)nc(C(Cl)(Cl)Cl)n2)n1
[1]
  GI50: 0.728 µM
  TGI: 2.18 µM

## CC(C)n1nc(C#Cc2cccc(NC(=O)c3cccc(C(F)(F)F)c3)c2)c2c(N)ncnc21
[1]
  GI50: 4.54 µM
  TGI: 28.4 µM

## O=c1c2cc(F)ccc2sc2c(NCCCN3CCCC3)nc3ccccc3c12
[1]
  GI50: 1.17 µM
  TGI: 2.67 µM

## C=CC[PH+](c1ccccc1)c1ccccc1.C=CC[PH+](c1ccccc1)c1ccccc1.[Cl][Pt][Cl]
[1]
  GI50: 2.64 µM
  TGI: 7.1 µM

## CC(C)(C)c1cc(C(=O)Nc2cc3ccccc3cc2C(=O)NCCN)cc(C(C)(C)C)c1
[1]
  GI50: 0.347 µM
  TGI: 0.989 µM

## C#Cc1cccc(Nc2ncnc3ccc(-c4cncc(NS(C)(=O)=O)c4)cc23)c1
[1]
  GI50: 0.208 µM
  TGI: 0.731 µM

## CC1(C)CC2(C)OC2C2(C1)N=NC(=Nc1ccccc1)O2 (stereo not drawn)
[1]
  GI50: 2.47 µM
  TGI: 7.28 µM
